{"source": "ChEMBL document CHEMBL2417447", "about": "“Synthesis and binary QSAR study of antitubercular quinolylhydrazides” (2013)", "key": {"[1]": {"system": "Mycobacterium tuberculosis", "test": "Antimycobacterial activity against Mycobacterium tuberculosis H37Rv ATCC 27294 assessed as growth inhibition at 6.25 ug/ml after 5 to 8 days by microplate alamar blue assay relative to control", "type": "functional", "details": "read-out: GI"}, "[2]": {"system": "Mycobacterium tuberculosis", "test": "Antitubercular activity against Mycobacterium tuberculosis H37Rv ATCC 27294 after 5 to 8 days by microplate alamar blue assay", "type": "functional"}}, "data": [{"smiles": "O=C1Nc2c(ccc(Cl)c2Cl)C(=O)/C1=N/Nc1ccc([N+](=O)[O-])cc1", "values": [{"measurement": "inhibition of growth at 6.25 µg/mL", "setting": "[1]", "result": 89, "unit": "%"}, {"measurement": "MIC", "setting": "[2]", "result": "< 6.25", "unit": "µg/mL"}]}, {"smiles": "O=C1Nc2c(cccc2[N+](=O)[O-])C(=O)/C1=N/Nc1ccccc1[N+](=O)[O-]", "values": [{"measurement": "inhibition of growth at 6.25 µg/mL", "setting": "[1]", "result": 80, "unit": "%"}, {"measurement": "MIC", "setting": "[2]", "result": "< 6.25", "unit": "µg/mL"}]}, {"smiles": "O=C1Nc2ccccc2C(=O)/C1=N/Nc1cccc(Cl)c1", "values": [{"measurement": "inhibition of growth at 6.25 µg/mL", "setting": "[1]", "result": 41, "unit": "%"}, {"measurement": "MIC", "setting": "[2]", "result": "> 6.25", "unit": "µg/mL"}]}, {"smiles": "COc1ccc(N/N=C2\\C(=O)Nc3cc(Cl)ccc3C2=O)cc1", "values": [{"measurement": "inhibition of growth at 6.25 µg/mL", "setting": "[1]", "result": 4, "unit": "%"}, {"measurement": "MIC", "setting": "[2]", "result": "> 6.25", "unit": "µg/mL"}]}]}
